Laboratory results as given in ChEMBL document CHEMBL5143711, “Glenthmycins A-M: Macrocyclic Spirotetronate Polyketide Antibacterials from the Australian Pasture Plant-Derived Streptomyces sp. CMB-PB041” (J Nat Prod, 2022).

How the values were obtained:
Staphylococcus aureus [1] = test: Antibacterial activity against methicillin-resistant Staphylococcus aureus ATCC 33591 incubated for 16 to 24 hrs by broth microdilution based spectrophotometric analysis; assay type: functional, organism-based
Candida albicans = test: Antifungal activity against Candida albicans ATCC 10231 incubated for 16 to 24 hrs by broth microdilution based spectrophotometric analysis; assay type: functional, organism-based
[2] = Cytotoxicity against human NCI-H460 cells and measured after 48 hrs by MTT assay; assay type: toxicity, cell-based
Staphylococcus aureus [3] = test: Antibacterial activity against methicillin-resistant Staphylococcus aureus ATCC 43300 incubated for 16 to 24 hrs by broth microdilution based spectrophotometric analysis; assay type: functional, organism-based
[4] = Cytotoxicity against human SW-620 cells and measured after 48 hrs by MTT assay; assay type: toxicity, cell-based
Enterococcus faecium = test: Antibacterial activity against vancomycin-resistant Enterococcus faecium incubated for 16 to 24 hrs by broth microdilution based spectrophotometric analysis; assay type: functional, organism-based
Enterococcus faecalis [5] = test: Antibacterial activity against Enterococcus faecalis incubated for 16 to 24 hrs by broth microdilution based spectrophotometric analysis; assay type: functional, organism-based
Escherichia coli = test: Antibacterial activity against Escherichia coli ATCC 11775 incubated for 16 to 24 hrs by broth microdilution based spectrophotometric analysis; assay type: functional, organism-based
Staphylococcus aureus [6] = test: Antibacterial activity against Staphylococcus aureus ATCC 25923 incubated for 16 to 24 hrs by broth microdilution based spectrophotometric analysis; assay type: functional, organism-based
[7] = test system: Mycobacterium tuberculosis; test: Antibacterial activity against Mycobacterium tuberculosis H37Ra ATCC 25177 incubated for 16 to 24 hrs by broth microdilution based spectrophotometric analysis; assay type: functional, organism-based
Enterococcus faecalis [8] = test: Antibacterial activity against Enterococcus faecalis incubated for 16 to 24 hrs in presence of rifampicin by broth microdilution based spectrophotometric analysis; assay type: functional, organism-based
Staphylococcus aureus [9] = test: Antibacterial activity against Staphylococcus aureus ATCC 25923 incubated for 16 to 24 hrs in presence of rifampin by broth microdilution based spectrophotometric analysis; assay type: functional, organism-based
Staphylococcus aureus [10] = test: Antibacterial activity against Staphylococcus aureus ATCC 25923 incubated for 16 to 24 hrs in presence of ampicillin by broth microdilution based spectrophotometric analysis; assay type: functional, organism-based
Enterococcus faecalis [11] = test: Antibacterial activity against Enterococcus faecalis incubated for 16 to 24 hrs in presence of ampicillin by broth microdilution based spectrophotometric analysis; assay type: functional, organism-based

SMILES	IC50 (Staphylococcus aureus [1])	IC50 (Candida albicans)	IC50 at 48 h [2]	IC50 (Staphylococcus aureus [3])	IC50 at 48 h [4]	IC50 (Enterococcus faecium)	IC50 (Enterococcus faecalis [5])	IC50 (Escherichia coli)	IC50 (Staphylococcus aureus [6])	IC50 [7]	IC50 (Enterococcus faecalis [8])	IC50 (Staphylococcus aureus [9])	IC50 (Staphylococcus aureus [10])	IC50 (Enterococcus faecalis [11])
COc1cc(C)c(C(=O)O[C@H]2[C@H](O[C@H]3CC[C@H](C)[C@@H]4[C@@H]3C=C(C)[C@H]3/C(C)=C/CC/C(C)=C/[C@]5(C)C=C(C(=O)O)[C@H](C)C[C@]56OC(=O)C(=C6O)C(=O)[C@@]43C)O[C@H](C)[C@@H](O)[C@H]2O)c(O)c1	10.2 µM	> 30 µM	> 30 µM	15.2 µM	> 30 µM	7.3 µM	13 µM	> 30 µM	10 µM	> 30 µM				
CC(=O)O[C@H]1CC[C@H](C)[C@@H]2[C@@H]1C=C(C)[C@H]1/C(C)=C/CC/C(C)=C/[C@]3(C)C=C(C)[C@H](C)C[C@]34OC(=O)C(=C4O)C(=O)[C@@]21C	0.9 µM	> 30 µM	> 30 µM	1.1 µM	> 30 µM	10 µM	3.7 µM	> 30 µM	1.2 µM	> 30 µM				
CC1=C[C@@]2(C)/C=C(\C)CC/C=C(\C)[C@@H]3C(C)=C[C@H]4[C@@H]([C@@H](C)CC[C@@H]4O)[C@]3(C)C(=O)C3=C(O)[C@@]2(C[C@H]1C)OC3=O	8.4 µM	> 30 µM	> 30 µM	3.8 µM	> 30 µM	> 30 µM	> 30 µM	> 30 µM	16.4 µM	> 30 µM				
COc1cc(C)c(C(=O)O[C@H]2[C@H](O[C@H]3CC[C@H](C)[C@@H]4[C@@H]3C=C(C)[C@H]3/C(C)=C/CC/C(C)=C/[C@@H]5C=C(C(=O)O)[C@H](C)C[C@]56OC(=O)C(=C6O)C(=O)[C@@]43C)O[C@H](C)[C@@H](O)[C@H]2O)c(O)c1	8.6 µM	> 30 µM	> 30 µM	16.3 µM	> 30 µM	2.9 µM	2.7 µM	> 30 µM	18.4 µM	> 30 µM				
CC(=O)O[C@H]1CC[C@H](C)[C@@H]2[C@@H]1C=C(C)[C@H]1/C(C)=C/CC/C(C)=C/[C@@H]3C=C(C)[C@H](C)C[C@]34OC(=O)C(=C4O)C(=O)[C@@]21C	6.8 µM	> 30 µM	> 30 µM	0.3 µM	> 30 µM	6.7 µM	3 µM	> 30 µM	0.8 µM	> 30 µM				
CC1(C)S[C@@H]2[C@H](NC(=O)[C@H](N)c3ccccc3)C(=O)N2[C@H]1C(=O)O [AMPICILLIN]											< 10 µM	< 10 µM		
CO[C@H]1/C=C/O[C@@]2(C)Oc3c(C)c(O)c4c(O)c(c(/C=N/N5CCN(C)CC5)c(O)c4c3C2=O)NC(=O)/C(C)=C\C=C\[C@H](C)[C@H](O)[C@@H](C)[C@@H](O)[C@@H](C)[C@H](OC(C)=O)[C@@H]1C [RIFAMPIN]													< 10 µM	< 10 µM
